The nature of series [1]: Behaviour on exposure to water (gelling). Format: physicochemical. The note with it: crystalline form exposed to water.
Series [2] concerns hepatitis C virus (HCV). The experiment in a line: Viral load of patients infected with hepatitis C virus. Format: in vivo.

SMILES strings stand for the structures.

On to `CC(C)C(=O)OC[C@@]1(N=[N+]=[N-])O[C@@H](n2ccc(N)nc2=O)[C@H](OC(=O)C(C)C)[C@@H]1OC(=O)C(C)C.Cl` [I, isobutyric acid (2R,3S,4R,5R)-5-(4-amino-2-oxo-2H-pyrimidin-1-yl)-2-azido-3,4-bis-iso-butyryloxy-tetrahydro-furan-2-ylmethyl ester; hydrochloride salt], for which the “gel formation when exposed to water” value in series [1] is on record as “readily forms a gel when exposed to water”. Besides, in series [2], the viral load result is “decrease the viral load”.

The values are drawn from US7795237B2, “Pharmaceutical composition and process” (priority 2005, dated 2010).
